Source: patent US20240002429A1, “PRODRUG OF 5a-HYDROXY-6ß-[2-(1H-IMIDAZOL-4-YL)ETHYLAMINO]CHOLESTAN-3ß-OL AND PHARMACEUTICAL COMPOSITIONS COMPRISING SAME FOR USE IN THE TREATMENT OF CANCER” (priority 2020, published 2024)

Experiments:
[1] = Pharmacokinetic study of DX121 (LC/MS in plasma); format: in vivo; settings: rat, oral 50 mg/kg, administered compound assayed
Text: (§1) The following study is a determination by LC/MS in plasma of the various molecules over 3 days (11 measurement points at the end). The graphs are always presented in comparison with DX101, which is the reference. […]

[2] = Pharmacokinetic study of DX117 (LC/MS in plasma); format: in vivo; settings: rat, 50 mg/kg, administered compound assayed
Text: as §1

4T1 cells [3] = assay: Cytotoxicity on 4T1 cells, CellTox Green Cytotoxicity Assay; format: cell-based, murine; settings: Mus musculus, 4T1, Green Cytotoxicity Assay, 48 h
Procedure: (§2) The cellular viability tests were carried out on murine mammary tumor 4T1 cells characterized as negative triples (HER2−, ER−, PR−).
(§3) For this experiment, a cell culture medium was prepared. The culture medium consists of Dulbecco's Modified Eagle Medium (DMEM, marketed by Westburg under the reference LO BE12-604F), comprising 4.5 g/L glucose with L-glutamine, to which 10% of fetal calf serum (FCS) and 50 U/mL of penicillin/streptomycin are added. The 4T1 cells are introduced into this culture medium.
(§4) 96-well plates were seeded with 2000 4T1 cells per well. After 72 hours (h) of culture in normal conditions, i.e. in an incubator at a temperature of 37° C. at 5% CO2, the 4T1 cells are treated for 48 h with DX101, DX107, DX113, DX117, DX119, DX121 or DX131 at 100 nM, 1 μM, 2.5 μM and 10 μM. A control condition (CTL) is also carried out in parallel using the protocol described above but without treatment with the molecules DX101, DX107, DX113, DX117, DX119, DX121, DX131 or DX133.
For the third method, the percentage viability is determined using the kit CellTox Green Cytotoxicity Assay (Promega). This assay measures cell death via a change in membrane integrity. […] As a result, the higher the fluorescence in the wells, the greater is the cell death. After 48 h of treatment, the cells are incubated for a minimum of 15 minutes in the presence of the Celltox green reagent at room temperature and the fluorescence is read at […]. The percentage cell death is determined using the control 100% of cell death (carried out for untreated cells incubated in the presence of the lysis solution for 30 minutes at 37° C. before adding the Celltox green reagent), and the cellular viability in each well is then deduced from this percentage. IC50 is then determined as explained above.

[4] = tested on: MCF-7 mammary tumor cells; assay: Morphology of MCF-7 cells under inverted microscope; format: cell-based
Procedure: A cell viability test was carried out on MCF-7 mammary tumor cells (Michigan Cancer Foundation-7) […] (ER(+) cells) containing receptors for the hormone estrogen.
The MCF-7 cells are in a cell culture medium identical to example 14 and are seeded in 12-well plates at 50000 cells per well for 24 h. 24 hours after seeding, the cells are treated with the solvate vehicle comprising water and ethanol with an ethanol ratio 1‰ and comprising 5α-hydroxy-6β-[2-(1H-imidazol-4-yl)-ethylamino]-cholestan-3β-yl propionate or 5α-hydroxy-6β-[2-(1H-imidazol-4-yl)-ethylamino]-cholestan-3β-ol at 1, 2.5 or 5 μM. The cells are observed in an inverted microscope and photographed with the microscope camera at 24 h and 48 h. The morphological changes of the cells at 1 μM are very slight.
In this test: • The white vesicles reflect cell death by cytotoxic autophagy; • The cells that become rounded reflect cell death; • The cells that become detached reflect a cytotoxic effect; • The adherent cells reflect cell survival; • The supernatant cells reflect cell death; and • The refractive cells reflect cell death.

[5] = tested on: BT-474 human mammary tumor cells; assay: Cytotoxicity on BT-474 cells, trypan blue; format: cell-based; settings: BT-474, trypan blue, 48 h
Procedure: The cellular viability tests were also carried out on BT-474 human mammary tumor cells (characterized as being positive triples HER2+, ER+, PR+). The BT-474 cells are in a cell culture medium identical to the preceding example and are seeded in 24-well plates at 70 000 cells per well, for determination of cellular viability using trypan blue, or in 96-well plates at 13 000 cells per well for determination of cellular viability using the MTT or LDH assay. After 96 hours (h) of culture in normal conditions, i.e. in an incubator at a temperature of 37° C. at 5% CO2, the BT-474 cells are treated for 48 h with DX101, DX107, and DX113 at 100 nM, 1 μM, 2.5 μM and 10 μM. A control is also carried out using the protocol described above but without treatment with the molecules DX101, DX107, DX113, DX117, DX119, DX121 or DX131.
After trypsin digestion for 10 minutes at 37° C., cell survival was quantified, also by a trypan blue assay with automatic counting with the Biorad TC20 equipment (TC20™ Automated Cell Counter). The trypan blue assay is based on the cell membrane integrity, which is broken in the dead cells. Trypan blue stains the dead cells blue. The Biorad TC20 cell counter counts the proportion of blue cells and non-blue cells, relative to the cell percentages. The percentage viability is then determined in each well relative to the untreated cells and the IC50 is determined as explained in the preceding example. The percentage viability of the BT-474 cells was determined using the MTT and LDH assay, carried out as described in the preceding example.

4T1 cells [6] = assay: Cytotoxicity on 4T1 cells, MTT; format: cell-based, murine; settings: Mus musculus, 4T1, MTT, 48 h
Procedure: as §2, §3, §4
Cellular viability is measured by three different methods. For the first method, MTT labeling is carried out at 48 hours. This test is based on the use of the tetrazolium salt MTT (3-(4,5-dimethylthiazol-2-yl)-2,5-diphenyltetrazolium bromide). The tetrazolium is reduced by mitochondrial succinate dehydrogenase of active living cells, to formazan, a precipitate of a violet color. The quantity of precipitate formed is proportional to the quantity of living cells but also to the metabolic activity of each cell. […] After 48 hours, the medium is aspirated, and the cells are incubated with MTT (0.5 mg/ml in culture medium) for about 3 hours. The MTT solution is aspirated and the violet crystals are dissolved in dimethylsulfoxide (DMSO). The OD (optical density) is measured at 550 nm. The percentage viability is then determined in each well relative to the CTL and the IC50 (concentration for which there are still 50% of living cells) is determined for each molecule with Prism software using the nonlinear regression straight line (log(inhibitor) vs. Response).

[7] = log of IC50 in μM, read-out: Mean LogIC50 (±SEM) (converted)

Row | Structure (SMILES) | Concentration max [1] | Area under curve ([1]; 0-72 h) | Concentration max [2] | Area under curve ([2]; 0-72 h) | IC50 (4T1 cells [3]; [7]) | IC50 (4T1 cells [3]; read-out: IC50) | Morphological observations at 24 hours ([4]; MCF-7, 1 μM, 24 h) | Observations at 48 hours ([4]; MCF-7, 5 μM, 48 h) | Mean LogIC50 (±SEM) ([5]; log of IC50 in μM) | IC50 ([5]; Homo sapiens) | IC50 (4T1 cells [6]; [7]) | IC50 (4T1 cells [6]; read-out: IC50)
1 | CC(C)CCC[C@@H](C)[C@H]1CC[C@H]2[C@@H]3C[C@@H](NCCc4c[nH]cn4)[C@@]4(O)C[C@@H](O)CC[C@]4(C)[C@H]3CC[C@]12C [DX101, 5α-hydroxy-6β-[2-(1H-imidazol-4-yl)-ethylamino]-cholestan-3β-ol, reference compound] | 150 nM | 3019 | 150 nM | 3019 | 3.55 µM | 3.55 µM | Some white vesicles | All the cells are supernatant. | – | – | – | –
2 | CCC(=O)O[C@H]1CC[C@]2(C)[C@H]3CC[C@]4(C)[C@@H]([C@H](C)CCCC(C)C)CC[C@H]4[C@@H]3C[C@@H](NCCc3c[nH]cn3)[C@@]2(O)C1 [DX107, 5α-hydroxy-6β-[2-(1H-imidazol-4-yl)ethylamino]cholestan-3β-yl propionate] | – | – | – | – | 2.34 µM | 2.33 µM | – | – | 0.66 ± 0.04 | 4.58 µM | 3.8 µM | 3.79 µM
